Reference: US20240252488A1 (KOREA RESEARCH INSTITUTE OF CHEMICAL TECHNOLOGY, priority 2020, published 2024)

Experiments:
MLKL [1] = target: T1, MLKL (Homo sapiens, UniProt Q8NB16); assay: Measurement of binding affinity with MLKL receptor (competitive binding assay, Kd); design: made in house; host or cells: HEK 293 cell line (T7 phage in E. coli BL21-derived host is also described)
T1 sequence (Q8NB16 1-471): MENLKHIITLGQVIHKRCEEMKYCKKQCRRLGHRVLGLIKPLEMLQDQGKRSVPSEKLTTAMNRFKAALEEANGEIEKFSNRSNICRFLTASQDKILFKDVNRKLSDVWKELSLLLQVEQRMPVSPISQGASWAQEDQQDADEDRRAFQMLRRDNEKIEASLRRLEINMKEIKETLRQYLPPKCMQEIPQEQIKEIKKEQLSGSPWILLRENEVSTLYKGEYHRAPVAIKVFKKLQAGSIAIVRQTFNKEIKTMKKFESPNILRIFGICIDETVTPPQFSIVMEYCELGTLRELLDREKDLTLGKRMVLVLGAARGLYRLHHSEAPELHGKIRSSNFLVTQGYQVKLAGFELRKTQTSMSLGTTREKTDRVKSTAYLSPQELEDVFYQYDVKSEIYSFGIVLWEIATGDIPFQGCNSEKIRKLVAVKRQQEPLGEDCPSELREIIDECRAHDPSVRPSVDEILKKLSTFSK
Procedure, shortened: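 qPCR of MLKL eluted from liganded beads served as the read-out, from which Kd was derived. The protein was made in HEK 293 cells with a DNA tag, and test compounds competed with the bead-bound ligand at 0.9% final DMSO.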

FADD−/− Jurkat cells = assay: Necroptosis inhibition assay, TNF-α-induced necroptosis (CellTiter-Glo 2.0); format: cell-based, human; settings: TNF-α 15 ng/mL, FADD−/− Jurkat cells; for Necroptosis inhibition assay (Rescue %) 1 μM: compound 1 μM; for Necroptosis inhibition assay (Rescue %) 10 μM: compound 10 μM
Procedure, shortened: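 Tested at three fixed concentrations (0.1, 1, 10 μM final) with a 30-minute room-temperature preincubation ahead of 15 ng/mL TNF-α challenge lasting 20 to 24 hours. Inhibition rate and cytotoxicity derive from ATP luminescence.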

MLKL [2] = target: T1, MLKL; assay: MLKL degradation assay in HepG2 cell line (western blot); format: cell-based; design: endogenous in cells; host or cells: HepG2 or HaCaT; settings: cell line not given; for Degradation assay (Degradation %) 1 μM: compound 1 μM; for Degradation assay (Degradation %) 10 μM: compound 10 μM
Procedure, shortened: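 Degradation is judged from MLKL band intensity on immunoblots of HepG2 lysates taken after 20-24 hours of compound at final 1 or 10 μM.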

| Compound | Kd (MLKL [1]) | Degradation assay (Degradation %) 1 μM (MLKL [2]) | Degradation assay (Degradation %) 10 μM (MLKL [2]) | Necroptosis inhibition assay (Rescue %) 1 μM (FADD−/− Jurkat cells) | Necroptosis inhibition assay (Rescue %) 10 μM (FADD−/− Jurkat cells) |
| --- | --- | --- | --- | --- | --- |
| Nc1ncc(-c2cnn(C3CCN(C(=O)CCC4CCN(C(=O)CC5CCN(c6ccc7c(c6)C(=O)N(C6CCC(=O)NC6=O)C7=O)CC5)CC4)CC3)c2)nc1C(=O)O[C@@H](C(=O)Nc1ccc(F)cc1)c1ccccc1 (stereo partly drawn) [TDH-430, (R)-2-((4-fluorophenyl)amino)-2-oxo-1-phenylethyl 3-amino-6-(1-(1-(3-(1-(2-(1-(2-(2,6-dioxopiperidin-3-yl)-1,3-dioxoisoindolin-5-yl)piperidin-4-yl)acetyl)piperidin-4-yl)propanoyl)piperidin-4-yl)-1H-pyrazol-4-yl)pyrazine-2-carboxylate] | 2.2 nM | 65.96% | 36.66% | 15.88% | 14.13% |
| Nc1ncc(-c2cnn(C3CCN(C(=O)CCC4CCN(C(=O)CNc5cccc6nnn(C7CCC(=O)NC7=O)c(=O)c56)CC4)CC3)c2)nc1C(=O)O[C@@H](C(=O)Nc1ccc(F)cc1)c1ccccc1 (stereo partly drawn) [TDH-433, (R)-2-((4-fluorophenyl)amino)-2-oxo-1-phenylethyl 3-amino-6-(1-(1-(3-(1-((3-(2,6-dioxopiperidin-3-yl)-4-oxo-3,4-dihydrobenzo[d][1,2,3]triazin-5-yl)glycyl)piperidin-4-yl)propanoyl)piperidin-4-yl)-1H-pyrazol-4-yl)pyrazine-2-carboxylate] | 2.1 nM | 74.16% | 46.20% | 16.00% | 11.01% |
| Nc1ncc(-c2cnn(C3CCN(C(=O)CCC4CCN(C(=O)C5CCN(c6cccc7nnn(C8CCC(=O)NC8=O)c(=O)c67)CC5)CC4)CC3)c2)nc1C(=O)O[C@@H](C(=O)Nc1ccc(F)cc1)c1ccccc1 (stereo partly drawn) [TDH-435, (R)-2-((4-fluorophenyl)amino)-2-oxo-1-phenylethyl 3-amino-6-(1-(1-(3-(1-(1-(3-(2,6-dioxopiperidin-3-yl)-4-oxo-3,4-dihydrobenzo[d][1,2,3]triazin-5-yl)piperidine-4-carbonyl)piperidin-4-yl)propanoyl)piperidin-4-yl)-1H-pyrazol-4-yl)pyrazine-2-carboxylate] | 1.8 nM | 79.73% | 64.92% | 18.26% | 11.49% |
| Nc1ncc(-c2cnn(C3CCN(C(=O)CCC4CCN(C(=O)C5CCN(c6ccc7nnn(C8CCC(=O)NC8=O)c(=O)c7c6)CC5)CC4)CC3)c2)nc1C(=O)O[C@@H](C(=O)Nc1ccc(F)cc1)c1ccccc1 (stereo partly drawn) [TDH-436, (R)-2-((4-fluorophenyl)amino)-2-oxo-1-phenylethyl 3-amino-6-(1-(1-(3-(1-(1-(3-(2,6-dioxopiperidin-3-yl)-4-oxo-3,4-dihydrobenzo[d][1,2,3]triazin-6-yl)piperidine-4-carbonyl)piperidin-4-yl)propanoyl)piperidin-4-yl)-1H-pyrazol-4-yl)pyrazine-2-carboxylate] | 3.1 nM | 85.98% | 71.25% | 41.81% | 21.38% |
| Nc1ncc(-c2cnn(C3CCN(C(=O)CCC4CCN(C(=O)C5CN(c6ccc7nnn(C8CCC(=O)NC8=O)c(=O)c7c6)C5)CC4)CC3)c2)nc1C(=O)O[C@@H](C(=O)Nc1ccc(F)cc1)c1ccccc1 (stereo partly drawn) [TDH-438, (R)-2-((4-fluorophenyl)amino)-2-oxo-1-phenylethyl 3-amino-6-(1-(1-(3-(1-(1-(3-(2,6-dioxopiperidin-3-yl)-4-oxo-3,4-dihydrobenzo[d][1,2,3]triazin-6-yl)azetidine-3-carbonyl)piperidin-4-yl)propanoyl)piperidin-4-yl)-1H-pyrazol-4-yl)pyrazine-2-carboxylate] | 4.5 nM | 86.72% | 78.91% | 26.37% | 13.48% |

These reach a lower Kd (MLKL [1]). Values come first.

| Kd (MLKL [1]) | Degradation assay (Degradation %) 1 μM (MLKL [2]) | Degradation assay (Degradation %) 10 μM (MLKL [2]) | Compound | Necroptosis inhibition assay (Rescue %) 1 μM (FADD−/− Jurkat cells) | Necroptosis inhibition assay (Rescue %) 10 μM (FADD−/− Jurkat cells) |
| --- | --- | --- | --- | --- | --- |
| 1 nM | 86.88% | 76.78% | Nc1ncc(-c2cnn(C3CCN(C(=O)CCC4CCN(C(=O)CCc5cccc6c5C(=O)N(C5CCC(=O)NC5=O)C6=O)CC4)CC3)c2)nc1C(=O)O[C@@H](C(=O)Nc1ccc(F)cc1)c1ccccc1 (stereo partly drawn) [TDH-431, (R)-2-((4-fluorophenyl)amino)-2-oxo-1-phenylethyl 3-amino-6-(1-(1-(3-(1-(3-(2-(2,6-dioxopiperidin-3-yl)-1,3-dioxoisoindolin-4-yl)propanoyl)piperidin-4-yl)propanoyl)piperidin-4-yl)-1H-pyrazol-4-yl)pyrazine-2-carboxylate] | 37.24% | 17.64% |
| 0.9 nM | 89.17% | 73.05% | Nc1ncc(-c2cnn(C3CCN(C(=O)CCC4CCN(C(=O)CCc5ccc6c(c5)C(=O)N(C5CCC(=O)NC5=O)C6=O)CC4)CC3)c2)nc1C(=O)O[C@@H](C(=O)Nc1ccc(F)cc1)c1ccccc1 (stereo partly drawn) [TDH-432, (R)-2-((4-fluorophenyl)amino)-2-oxo-1-phenylethyl 3-amino-6-(1-(1-(3-(1-(3-(2-(2,6-dioxopiperidin-3-yl)-1,3-dioxoisoindolin-5-yl)propanoyl)piperidin-4-yl)propanoyl)piperidin-4-yl)-1H-pyrazol-4-yl)pyrazine-2-carboxylate] | 12.47% | 0.07% |
| 1.4 nM | 85.08% | 74.66% | Nc1ncc(-c2cnn(C3CCN(C(=O)CCC4CCN(C(=O)CNc5ccc6nnn(C7CCC(=O)NC7=O)c(=O)c6c5)CC4)CC3)c2)nc1C(=O)O[C@@H](C(=O)Nc1ccc(F)cc1)c1ccccc1 (stereo partly drawn) [TDH-434, (R)-2-((4-fluorophenyl)amino)-2-oxo-1-phenylethyl 3-amino-6-(1-(1-(3-(1-((3-(2,6-dioxopiperidin-3-yl)-4-oxo-3,4-dihydrobenzo[d][1,2,3]triazin-6-yl)glycyl)piperidin-4-yl)propanoyl)piperidin-4-yl)-1H-pyrazol-4-yl)pyrazine-2-carboxylate] | 28.72% | 20.87% |
| 1.3 nM | 87.34% | 79.50% | Nc1ncc(-c2cnn(C3CCN(C(=O)CCC4CCN(C(=O)COc5ccc6nnn(C7CCC(=O)NC7=O)c(=O)c6c5)CC4)CC3)c2)nc1C(=O)O[C@@H](C(=O)Nc1ccc(F)cc1)c1ccccc1 (stereo partly drawn) [TDH-437, (R)-2-((4-fluorophenyl)amino)-2-oxo-1-phenylethyl 3-amino-6-(1-(1-(3-(1-(2-((3-(2,6-dioxopiperidin-3-yl)-4-oxo-3,4-dihydrobenzo[d][1,2,3]triazin-6-yl)oxy)acetyl)piperidin-4-yl)propanoyl)piperidin-4-yl)-1H-pyrazol-4-yl)pyrazine-2-carboxylate] | 42.82% | 23.20% |
| 0.91 nM | 86.02% | 91.86% | Nc1ncc(-c2cnn(C3CCN(C(=O)CCC4CCN(C(=O)CCc5cccc6c5CN(C5CCC(=O)NC5=O)C6=O)CC4)CC3)c2)nc1C(=O)O[C@@H](C(=O)Nc1ccc(F)cc1)c1ccccc1 (stereo partly drawn) [TDH-439, (R)-2-((4-fluorophenyl)amino)-2-oxo-1-phenylethyl 3-amino-6-(1-(1-(3-(1-(3-(2-(2,6-dioxopiperidin-3-yl)-1-oxoisoindolin-4-yl)propanoyl)piperidin-4-yl)propanoyl)piperidin-4-yl)-1H-pyrazol-4-yl)pyrazine-2-carboxylate] | 41.96% | 43.64% |
| 0.51 nM | 81.51% | 84.75% | Nc1ncc(-c2cnn(C3CCN(CCCN4CCN(CC5CCN(C(=O)COc6ccc7c(c6)C(=O)N(C6CCC(=O)NC6=O)C7=O)CC5)CC4)CC3)c2)nc1C(=O)O[C@@H](C(=O)Nc1ccc(F)cc1)c1ccccc1 (stereo partly drawn) [TDH-440, (R)-2-((4-fluorophenyl)amino)-2-oxo-1-phenylethyl 3-amino-6-(1-(1-(3-(4-((1-(2-((2-(2,6-dioxopiperidin-3-yl)-1,3-dioxoisoindolin-5-yl)oxy)acetyl)piperidin-4-yl)methyl)piperazin-1-yl)propyl)piperidin-4-yl)-1H-pyrazol-4-yl)pyrazine-2-carboxylate] | 65.67% | 24.42% |
